Data on one compound can be found in US20240270786A1, “STEROID COMPOUNDS” (Epirium Bio Inc., priority 2022, published 2024).

Format in all cases: biochemical, mouse
In assay [1] the test system is mitochondrial ATP synthase. In words: Maximal ATP hydrolysis capacity in frozen heart mitochondria. Conditions: oligomycin at different concentrations in the assay media.
Description: Plates were loaded with 0.75-1.5 μg of mouse heart mitochondria, or 25 μg of cell lysate. Cell lysates were prepared by subjecting the samples to 4 cycles of free thaw (liquid nitrogen—37° C. water bath) before measuring protein concentration. When assessing compounds effect on respirometry, the compounds were added in MAS after sample centrifugation. Initial respiration of the samples was sustained by the addition of 5 mM succinate+2 μM rotenone in the MAS after centrifugation. Injections were performed at the following final concentration in the well: Antimycin A (2 μM), oligomycin (5 μM), FCCP (1 μM), ATP (20 mM). To assess maximal ATP concentration, ATP was injected consecutively. An additional assay was developed to determine the maximal ATP hydrolysis capacity in frozen mitochondria. Maximal ATP hydrolytic capacity was assessed in frozen heart mitochondria where mitochondrial respiration is inhibited by Antimycin A and maximal ATP hydrolysis is driven by co-injection of FCCP and ATP, followed by inhibition in the presence of oligomycin.
The test system of assay [2] is mitochondrial ATP synthase. In words: ATP synthesis (oxygen consumption, Seahorse XF96) in fresh heart mitochondria. Conditions: Complex I or Complex II substrates (FIG. 1, FIG. 2). An excerpt:
(§1) To assess whether the fraction of synthetic and reverse hydrolytic activities of mitochondrial ATP synthase can be measured in the same preparation, a protocol was developed to monitor changes in oxygen consumption and proton release in response to changes in mitochondrial ATP synthase activity. The proton released and the concomitant changes in the pH can be monitored using the ECAR (extracellular acidification) channel in the Agilent Seahorse XF analyzer using isolated mitochondria, to ensure that the changes in pH cannot be attributed to glycolysis or other contributors to ECAR.
Mice were anesthetized with isoflurane followed by a cervical dislocation, and the heart was immediately removed and placed in ice cold relaxation buffer (5 mM sodium pyrophosphate, 100 mM KCl, 5 mM EGTA, 5 mM HEPES; pH 7.4). […] The mitochondrial pellets were re-suspended in ice cold HES buffer and mitochondrial protein was measured with a BCA assay (Pierce). […]
Oxygen consumption was measured in isolated fresh intact mitochondria from mouse heart, as oxygen consumption is linked to maximal ATP synthesis and proton release when mitochondria are respiring either in the presence of substrates and ADP (ATP synthesizing mitochondria or state 3) or in the presence of substrates but not ADP (state 4). […]

Assay [3] has as its system mitochondrial ATP synthase. In words: ATP hydrolysis (acidification, Seahorse XF96) in fresh heart mitochondria. Conditions: fresh heart mitochondria (FIG. 1, FIG. 2).
Description: as §1
Mice were anesthetized with isoflurane followed by a cervical dislocation, and the heart was immediately removed and placed in ice cold relaxation buffer (5 mM sodium pyrophosphate, 100 mM KCl, 5 mM EGTA, 5 mM HEPES; pH 7.4). The heart was squeezed with tweezers to remove blood, minced with scissors, and then placed in a glass-glass Dounce homogenizer with 3 mL of HES homogenization buffer (250 mM sucrose, 5 mM HEPES, 1 mM EDTA; pH to 7.2, adjusted with KOH). The heart tissue was homogenized first with the loose pestle and followed by the tight pestle. The homogenized tissue was placed in a pre-chilled 15 mL conical tube and centrifuged at 900×g (4° C.) for 10 minutes (min). The supernatant was removed, placed in a new tube and centrifuged again at 900×g for 10 min. The supernatant was then transferred to 2 mL microcentrifuge tubes and centrifuged at 10,000×g (4° C.) for 10 min. The mitochondrial pellets were re-suspended in ice cold HES buffer and mitochondrial protein was measured with a BCA assay (Pierce). The concentrated mitochondrial pellet was stored on ice. […]
ATP hydrolysis capacity or state 4 acidification was measured using Seahorse XF96 as described in Divakaruni et al. (2018) Anal Biochem 552:60-65 and Acin-Perez et al. (2021) Life 11(9):949, in MAS (70 mM Sucrose, 220 mM Mannitol, 5 mM KH2PO4, 5 mM MgCl2, 1 mM EGTA, 2 mM HEPES; pH 7.2). […]

Each structure is given as a SMILES string.

On to `CC[C@H]1/C=C/C=C/C[C@@H](C)[C@H](O)[C@@](C)(O)C(=O)[C@@H](C)[C@H](O)[C@@H](C)C(=O)[C@@H](C)[C@H](O)[C@@H](C)/C=C/C(=O)O[C@@H]2[C@H](C)[C@H](CC1)O[C@]1(CC[C@H](C)[C@H](C[C@@H](C)O)O1)[C@H]2C` [Oligomycin, oligomycin, reference compound], for which the results for the ATP hydrolysis entry in assay [1] and in assay [3] were “dose dependent inhibition of ATP hydrolysis” and “worked as expected”, respectively. Moreover, the ATP synthesis result in assay [2] is on record as “worked as expected”.
